According to ChEMBL document CHEMBL4813995, “Synthesis and anti-trypanosomal activity of 3'-fluororibonucleosides derived from 7-deazapurine nucleosides” (Bioorg Med Chem Lett, 2021):
pEC50, pIC50: −log10 of the molar value.

What was measured:
[1] = Selective index, ratio of IC50 for human NHDF cells to EC50 for Trypanosoma brucei brucei; assay type: toxicity; conditions: read-out: Ratio IC50/EC50
[2] = system: NHDF; experiment: Cytotoxicity against human NHDF cells assessed as reduction in cell viability by XTT assay; assay type: cell-based
[3] = system: HeLa S3; experiment: Cytotoxicity against human HeLa S3 cells assessed as reduction in cell viability by XTT assay; assay type: functional, cell-based
[4] = system: Trypanosoma brucei brucei; experiment: Antitrypanosomal activity against Trypanosoma brucei brucei by drug sensitivity assay; assay type: functional, organism-based
[5] = system: HL-60; experiment: Cytotoxicity against human HL-60 cells assessed as reduction in cell viability by XTT assay; assay type: functional, cell-based
[6] = system: CCRF-CEM; experiment: Cytotoxicity against human CCRF-CEM cells assessed as reduction in cell viability by XTT assay; assay type: functional, cell-based
[7] = system: HepG2; experiment: Cytotoxicity against human HepG2 cells assessed as reduction in cell viability by XTT assay; assay type: functional, cell-based
[8] = Selective index, ratio of IC50 for human NHDF cells to EC50 for Trypanosoma brucei gambiense; assay type: toxicity; conditions: read-out: Ratio IC50/EC50
[9] = system: Trypanosoma brucei gambiense; experiment: Antitrypanosomal activity against Trypanosoma brucei gambiense by drug sensitivity assay; assay type: functional, organism-based

`Nc1ncnc2c1ccn2[C@@H]1O[C@H](CO)[C@@H](F)[C@H]1O` gave a selectivity ratio [1] greater than 1.7, a pIC50 [2] of less than 5.00 and a pIC50 [3] of less than 5.00. The pEC50 [4] was 5.22, the pIC50 [5] was less than 5.00 and the pIC50 [6] was less than 5.00. For the same molecule, the pIC50 [7] was less than 5.00.

In the case of `Nc1ncnc2c1c(I)cn2[C@@H]1O[C@H](CO)[C@@H](F)[C@H]1O`, the selectivity ratio [1] was greater than 666, the pIC50 [2] was less than 5.00 and the pIC50 [3] was 5.20. For the same molecule, the pEC50 [4] was 7.82, the pIC50 [5] was 5.95 and the selectivity ratio [8] was greater than 455. For the same molecule, the pEC50 [9] was 7.66, the pIC50 [6] was 5.35 and the pIC50 [7] was 5.96.

Molecule `Nc1ncnc2c1c(-c1cccs1)cn2[C@@H]1O[C@H](CO)[C@@H](F)[C@H]1O` has a selectivity ratio [1] greater than 2, a pIC50 [2] of less than 5.00 and a pIC50 [3] of less than 5.00. For the same molecule, the pEC50 [4] was 5.31, the pIC50 [5] was less than 5.00 and the pIC50 [6] was less than 5.00. It also gave a pIC50 [7] of less than 5.00.

For `Nc1ncnc2c1c(-c1ccco1)cn2[C@@H]1O[C@H](CO)[C@@H](F)[C@H]1O`, the selectivity ratio [1] was greater than 6, the pIC50 [2] was less than 5.00 and the pIC50 [3] was less than 5.00. It also gave a pEC50 [4] of 5.80, a pIC50 [5] of less than 5.00 and a pIC50 [6] of less than 5.00. For the same molecule, the pIC50 [7] was less than 5.00.

`Nc1ncnc2c1c(-c1ccc(Cl)cc1)cn2[C@@H]1O[C@H](CO)[C@@H](F)[C@H]1O` gave a selectivity ratio [1] greater than 20, a pIC50 [2] of less than 5.00 and a pIC50 [3] of less than 5.00. For the same molecule, the pEC50 [4] was 6.31, the pIC50 [5] was less than 5.00 and the selectivity ratio [8] was greater than 10. The pEC50 [9] was 6.00, the pIC50 [6] was less than 5.00 and the pIC50 [7] was less than 5.00.

With `Nc1ncnc2c1c(Br)cn2[C@@H]1O[C@H](CO)[C@@H](F)[C@H]1O` the selectivity ratio [1] was greater than 208, the pIC50 [2] was less than 5.00 and the pIC50 [3] was less than 5.00. The pEC50 [4] was 7.32, the pIC50 [5] was less than 5.00 and the selectivity ratio [8] was greater than 270. It also gave a pEC50 [9] of 7.43, a pIC50 [6] of less than 5.00 and a pIC50 [7] of less than 5.00.

`Nc1ncnc2c1c(-c1ccc3ccccc3c1)cn2[C@@H]1O[C@H](CO)[C@@H](F)[C@H]1O` gave a pIC50 [2] of less than 5.00, a pIC50 [3] of less than 5.00 and a pEC50 [4] of 4.79. The pIC50 [5] was less than 5.00, the pIC50 [6] was less than 5.00 and the pIC50 [7] was less than 5.00.

`Nc1ncnc2c1c(-c1cccc3c1oc1ccccc13)cn2[C@@H]1O[C@H](CO)[C@@H](F)[C@H]1O` showed a pIC50 [2] of less than 5.00, a pIC50 [3] of less than 5.00 and a pEC50 [4] of 4.81. It also gave a pIC50 [5] of less than 5.00, a pIC50 [6] of less than 5.00 and a pIC50 [7] of less than 5.00.
